In patent publication US4570013A, “Biphenylylalkanoic acid derivatives, methods of preparation and pharmaceutical compositions therefrom” (Dr. L. Zambeletti S.p.A., priority 1983, dated 1986):
Read-outs that look alike come from different tables or passages of the source.

Columns and labels:
[1] = gastrolesive action after single doses; conditions: rat, in vivo
[2] = test system: platelet aggregation induced by arachidonic acid; assay: platelet aggregation induced by arachidonic acid in vitro (method of Born); format: cell-based, guinea pigs; conditions: guinea pig platelet-enriched plasma
Method: The activity of compound Ia on the metabolism of arachidonic acid has been studied in virto according to the method described by B. Fjalland, J. Pharm. Pharmacol., 26, 448 (1974). In these tests the compound being examined is capable of inhibiting the synthesis of prostaglandin and thromboxane caused by arachidonic acid (AA) incubated with lung tissue of guinea pigs (IC50 =0.05 mM). The activity on the platelet aggregation induced by arachidonic acid has been determined in vitro on plasma enriched with platelets of guinea pigs according to the method described by G. V. R. Born, Nature 194, 927 (1962).

[3] = test system: oedema induced in the rats' paw by intradermic injection of carrageenin; assay: carrageenin-induced paw oedema (method of Winter), antiinflammatory activity; format: in vivo; conditions: Rattus norvegicus, po, orally, read-out: effective dose ED50, antiedemigenic (antiinflammatory) activity
[4] = test system: writhings caused by 2-phenylparabenzoquinone in mice; assay: writhing test (method of Siegmund), 2-phenylparabenzoquinone, analgesic activity; format: in vivo, Swiss mice; conditions: for Contorsions % (change vs controls) / No. Contorsions: orally at ED50: biphenylylacetic acid 12, Ia 32 mg/kg
Excerpt: The analgesic activity has been studied according to the method described by Siegmund (E. Siegmund et al, Proc. Soc. Exptl. Biol. Med., 95, 729 (1957)), according to which the algogenic stimulus consists of the intraperitoneal injection of 2-phenylparabenzoquinone and the algesia manifests itself in repeated abdominal contractions with an extension of the rear limbs and contorsions of the body ("writhing test").

[5] = test system: protective activity in the hot plate test; assay: hot plate test, central analgesic activity; format: in vivo; conditions: up to 200 mg/kg^-1 orally, mice
acute toxicity (DL50) = conditions: mouse, in vivo
Excerpt: Finally, the following values of DL50 have been determined in mice for compound Ia: […]

in vivo = conditions: rat, po
[6] = test system: Salmonella thyphimurium TA 1535; TA 1538; TA 100; TA 98; assay: Ames test, mutagenic action; format: cell-based; conditions: with and without metabolic activation, up to 5000 μg per plate
[7] = test system: aggregating action of arachidonic acid; assay: ex vivo study of aggregating action of arachidonic acid after oral administration; format: in vivo; conditions: guinea pigs, oral dose equal to antiinflammatory ED50
[8] = test system: Hyperthermia caused by brewer's yeast in rats; assay: brewer's yeast hyperthermia (method of C. Winter), antipyretic activity; format: in vivo
Excerpt: The antipyretic activity has been studied according to the method of C. Winter, Toxicol. and Appl. Pharmacol., 5, 247 (1963), in rats, by determining the ability of the substance to reduce the increase of body temperature caused by the subcutaneous administration of brewer's yeast.

COc1ccccc1OCC(O)COC(=O)Cc1ccc(-c2ccccc2)cc1 (centres unmarked) [Compound Ia, 1-Biphenylylacetoxy-3-(2-methoxyphenoxy)-propan-2-ol]
selectivity ratio [1]: 2 to 4 | IC50 ([2]; Cavia porcellus, read-out: IC50, anti aggregating activity): 123 µM | anti aggregating activity, concentration dependence [2]: proportional to the concentration used | ED50 [3]: 22.5 mg/kg | onset of analgesic activity after administration ([4]; 32 mg/kg orally, mice): 15 min | Contorsions % (change vs controls) ([4]; 5 minutes): -28% | No. Contorsions ([4]; 5 minutes): 33.1 ± 4.1 | Contorsions % (change vs controls) ([4]; 15 minutes): -33% | No. Contorsions ([4]; 15 minutes): 35.1 ± 3.4 | Contorsions % (change vs controls) ([4]; 30 minutes): -54% | No. Contorsions ([4]; 30 minutes): 22.7 ± 2.4 | Contorsions % (change vs controls) ([4]; 1 hour): -47% | No. Contorsions ([4]; 1 hour): 26.8 ± 3.3 | Contorsions % (change vs controls) ([4]; 2 hours): -46% | No. Contorsions ([4]; 2 hours): 25.4 ± 3.8 | Contorsions % (change vs controls) ([4]; 3 hours): -44% | No. Contorsions ([4]; 3 hours): 27.6 ± 3.4 | Contorsions % (change vs controls) ([4]; 4 hours): -31% | No. Contorsions ([4]; 4 hours): 33.5 ± 3.6 | Contorsions % (change vs controls) ([4]; 5 hours): -1% | No. Contorsions ([4]; 5 hours): 45.0 ± 3.2 | ED50 ([4]; Mus musculus, po, mice, orally, read-out: ED50, analgesic activity (writhing test)): 32 mg/kg | protective activity in the hot plate test (central analgesic activity) [5]: has not shown any protective activity | LD50 (acute toxicity (DL50); ip, read-out: DL50 ip): 260 mg/kg | LD50 (acute toxicity (DL50); po, read-out: DL50 orally): 3330 mg/kg | TD50 (in vivo): 61.7 mg/kg | mutagenic action (Ames test) [6]: has not shown any mutagenic action | duration of decrease in aggregating action of arachidonic acid [7]: remains up to the fifth hour | start of decrease in aggregating action of arachidonic acid after administration [7]: starts three hours after the administration | Temperature after administration of the substance, t ([8]; 6 mg/kg os, 1 h): 38.01±0.07 °C | Temperature change Δt after administration of the substance ([8]; 6 mg/kg os, 1 h): -0.63 °C | Temperature after administration of the substance, t ([8]; 6 mg/kg os, 2 h): 37.71±0.09 °C | Temperature change Δt after administration of the substance ([8]; 6 mg/kg os, 2 h): -0.75 °C | P/S, ratio of protected animals with respect to total screened animals ([8]; 6 mg/kg os, 3 h): 1/10 | Temperature after administration of the substance, t ([8]; 6 mg/kg os, 3 h): 37.70 °C | Temperature change Δt after administration of the substance ([8]; 6 mg/kg os, 3 h): -0.69 °C | Temperature after administration of the substance, t ([8]; 6 mg/kg os, 4 h): 37.85±0.14 °C | Temperature change Δt after administration of the substance ([8]; 6 mg/kg os, 4 h): -0.45 °C | Temperature after administration of the substance, t ([8]; 6 mg/kg os, 5 h): 38.07±0.15 °C | Temperature change Δt after administration of the substance ([8]; 6 mg/kg os, 5 h): -0.19 °C | Temperature after administration of the substance, t ([8]; 6 mg/kg os, 6 h): 38.10 °C | Temperature change Δt after administration of the substance ([8]; 6 mg/kg os, 6 h): -0.14 °C | Temperature after administration of the substance, t ([8]; 12 mg/kg os, 1 h): 37.81±0.06 °C | Temperature change Δt after administration of the substance ([8]; 12 mg/kg os, 1 h): -0.83 °C | Temperature after administration of the substance, t ([8]; 12 mg/kg os, 2 h): 37.40±0.05 °C | Temperature change Δt after administration of the substance ([8]; 12 mg/kg os, 2 h): -1.06 °C | P/S, ratio of protected animals with respect to total screened animals ([8]; 12 mg/kg os, 3 h): 4/10 | Temperature after administration of the substance, t ([8]; 12 mg/kg os, 3 h): 37.32±0.08 °C | Temperature change Δt after administration of the substance ([8]; 12 mg/kg os, 3 h): -1.07 °C | Temperature after administration of the substance, t ([8]; 12 mg/kg os, 4 h): 37.41±0.07 °C | Temperature change Δt after administration of the substance ([8]; 12 mg/kg os, 4 h): -0.89 °C | Temperature after administration of the substance, t ([8]; 12 mg/kg os, 5 h): 37.66±0.09 °C | Temperature change Δt after administration of the substance ([8]; 12 mg/kg os, 5 h): -0.50 °C | Temperature after administration of the substance, t ([8]; 12 mg/kg os, 6 h): 37.88±0.07 °C | Temperature change Δt after administration of the substance ([8]; 12 mg/kg os, 6 h): -0.36 °C | Temperature after administration of the substance, t ([8]; 24 mg/kg os, 1 h): 37.66±0.05 °C | Temperature change Δt after administration of the substance ([8]; 24 mg/kg os, 1 h): -0.98 °C | Temperature after administration of the substance, t ([8]; 24 mg/kg os, 2 h): 37.31±0.05 °C | Temperature change Δt after administration of the substance ([8]; 24 mg/kg os, 2 h): -1.15 °C | P/S, ratio of protected animals with respect to total screened animals ([8]; 24 mg/kg os, 3 h): 8/10 | Temperature after administration of the substance, t ([8]; 24 mg/kg os, 3 h): 37.13±0.06 °C | Temperature change Δt after administration of the substance ([8]; 24 mg/kg os, 3 h): -1.26 °C | Temperature after administration of the substance, t ([8]; 24 mg/kg os, 4 h): 37.16±0.06 °C | Temperature change Δt after administration of the substance ([8]; 24 mg/kg os, 4 h): -1.14 °C | Temperature after administration of the substance, t ([8]; 24 mg/kg os, 5 h): 37.34±0.05 °C | Temperature change Δt after administration of the substance ([8]; 24 mg/kg os, 5 h): -0.92 °C | Temperature after administration of the substance, t ([8]; 24 mg/kg os, 6 h): 37.55±0.06 °C | Temperature change Δt after administration of the substance ([8]; 24 mg/kg os, 6 h): -0.69 °C | ED50 ([8]; Rattus norvegicus, po, rats, orally, read-out: ED50, antipyretic activity): 14 mg/kg | duration of antipyretic activity ([8]; rats, orally): continues after the sixth hour | onset of antipyretic activity after the treatment ([8]; rats, orally): within one hour after the treatment
